Read-outs that look alike come from different tables or passages of the source.
Key:
[1] = system: HCV genotype 4a replicon; experiment: HCV replicon assay, GT 4a (luciferase readout); assay type: cell-based; conditions: Hepatitis C virus; GT 4a replicon; n > 3
Protocol: (§1) Biological activity of the compounds of the invention was determined using an HCV replicon assay. The 1b_Huh-Luc/Neo-ET cell line persistently expressing a bi-cistronic genotype 1b replicon in Huh 7 cells was obtained from ReBLikon GMBH. This cell line was used to test compound inhibition using luciferase enzyme activity readout as a measurement of compound inhibition of replicon levels.
(§2) On Day 1 (the day after plating), each compound was added in triplicate to the cells. Plates incubated for 72 hrs prior to running the luciferase assay. Enzyme activity was measured using a Bright-Glo Kit (cat. number E2620) manufactured by Promega Corporation. The following equation was used to generate a percent control value for each compound.
(§3) % Control=(Average Compound Value/Average Control)*100
(§4) The EC50 value was determined using GraphPad Prism and the following equation:
(§5) Y=Bottom+(Top−Bottom)/(1+10̂((LogIC50−X)*HillSlope))
(§6) EC50 values of compounds are repeated several times in the replicon assay.
(§7) The disclosed compounds can inhibit multiple genotypes of HCV including, but not limited to 1a, 1b, 2a, 3a, 4a and 5a. The EC50s are measured in the corresponding replicon assays that are similar to HCV 1b replicon assay as described above.

[2] = system: HCV genotype 3a replicon; experiment: HCV replicon assay, GT 3a (luciferase readout); assay type: cell-based; conditions: Hepatitis C virus; GT 3a replicon; n > 3
Protocol: as §1, §2, §3, §4, §5, §6, §7

[3] = system: HCV genotype 5a replicon; experiment: HCV replicon assay, GT 5a (luciferase readout); assay type: cell-based; conditions: Hepatitis C virus; GT 5a replicon; n > 3
Protocol: as §1, §2, §3, §4, §5, §6, §7

[4] = system: HCV genotype 2a replicon; experiment: HCV replicon assay, GT 2a (luciferase readout); assay type: cell-based; conditions: Hepatitis C virus; GT 2a replicon; n > 3
Protocol: as §1, §2, §3, §4, §5, §6, §7

[5] = system: HCV genotype 1a replicon; experiment: HCV replicon assay, GT 1a (luciferase readout); assay type: cell-based; conditions: Hepatitis C virus; GT 1a replicon; n > 3
Protocol: as §1, §2, §3, §4, §5, §6, §7

[6] = system: bi-cistronic genotype 1b replicon in Huh 7 cells (1b_Huh-Luc/Neo-ET cell line); experiment: HCV replicon assay, GT 1b (luciferase readout); assay type: cell-based; conditions: Hepatitis C virus, GT 1b replicon, n > 3
Protocol: as §1, §2, §3, §4, §5, §6

[7] = Solubility of Form I and free base compound 4-3 (visual and HPLC assay of filtrate); assay type: physicochemical; conditions: for pH (Filtrated): filtrate of solubility sample; for HPLC Solubility / Visual Solubility (observation in words) / solubility at 24 h: target conc. 2.0 mg/mL; for HPLC Solubility / solubility at 24 h: 24 hours ambient, 0.45-μm filtrate; for solubility at 24 h: thermodynamic from solid, read-out: HPLC Solubility
Protocol: Solubility of Form I as well as the free base compound 4-3 was tested. Solubility was measured by placing a small quantity of the compound to be analyzed in a glass vial, capping and rotating the vial overnight at ambient conditions (24 hours). Target concentration was 2.0 mg/mL. The samples were filtrated with 0.45-μm filters. The subsequent filtrate was collected for HPLC assay. HPLC conditions are shown in Table 10 in Appendix A. Solubility for Form I is shown in Table 11 and for the free base compound 4-3 is shown in Table 12 in Appendix A. [table]

[8] = Moisture sorption profile (DVS) of Compound II Form I and amorphous Compound II; assay type: physicochemical; conditions: DVS at 25° C.
Protocol: The moisture sorption profile was generated of the sample as well as of a sample of amorphous Compound II at 25° C. using a DVS Moisture Balance Flow System (Model Advantage) with the following conditions: sample size approximately 10 mg, drying 25° C. for 60 minutes, adsorption range 0% to 95% RH, desorption range 95% to 0% RH, and step interval 5%. The equilibrium criterion was <0.01% weight change in 5 minutes for a maximum of 120 minutes.

Compound `COC(=O)N[C@H](C(=O)N1CCC[C@H]1c1ncc(-c2ccc3cc(-c4ccc5nc([C@@H]6CCCN6C(=O)[C@@H](NC(=O)OC)C(C)C)[nH]c5c4)ccc3c2)[nH]1)C(C)C` [Compound I] has an EC50 [1] of 0.052 nM, an EC50 [2] of 1.26 nM and an EC50 [3] of 0.039 nM. For the same compound, the EC50 [4] was 0.139 nM, the EC50 [5] was 0.135 nM and the EC50 [6] was 0.016 nM.

For `CC[C@H](C)[C@H](NC(=O)OC)C(=O)N1CCC[C@H]1c1nc2ccc(-c3ccc4cc(-c5cnc([C@@H]6CCCN6C(=O)[C@@H](NC(=O)OC)[C@@H](C)OC)[nH]5)ccc4c3)cc2[nH]1` [compound 4-3], the “pH (Filtrated)” value ([7]; 0.1N HCl) was 1.09, the “HPLC Solubility” value ([7]; 0.1N HCl) was 2066 µg/mL and the “pH (Filtrated)” value ([7]; Water) was 8.83. For the same compound, the “Visual Solubility (observation in words)” value ([7]; Water) was “Turbid +”, the “HPLC Solubility” value ([7]; Water) was under 1 µg/mL and the “pH (Filtrated)” value ([7]; pH 2 medium) was 2.17. For the same compound, the “HPLC Solubility” value ([7]; pH 2 medium) was 2056 µg/mL, the “pH (Filtrated)” value ([7]; pH 3 medium) was 3.59 and the “Visual Solubility (observation in words)” value ([7]; pH 3 medium) was “A few”. The “HPLC Solubility” value ([7]; pH 3 medium) was 1763 µg/mL, the “pH (Filtrated)” value ([7]; pH 4 medium) was 4.72 and the “Visual Solubility (observation in words)” value ([7]; pH 4 medium) was “Turbid +”. For the same compound, the “HPLC Solubility” value ([7]; pH 4 medium) was 11 µg/mL, the “pH (Filtrated)” value ([7]; pH 5 medium) was 5.27 and the “HPLC Solubility” value ([7]; pH 5 medium) was 1 µg/mL. The solubility at 24 h ([7]; pH 6 medium, pH 6, aqueous buffer, pH 6 medium) was under 1 µg/mL, the “pH (Filtrated)” value ([7]; pH 6 medium) was 6.04 and the “Visual Solubility (observation in words)” value ([7]; pH 6 medium) was “Turbid +”. The solubility at 24 h ([7]; pH 7 medium, pH 7, aqueous buffer, pH 7 medium) was under 1 µg/mL, the “pH (Filtrated)” value ([7]; pH 7 medium) was 7.00 and the “Visual Solubility (observation in words)” value ([7]; pH 7 medium) was “Turbid +”. The solubility at 24 h ([7]; pH 8 medium, pH 8, aqueous buffer, pH 8 medium) was under 1 µg/mL, the “pH (Filtrated)” value ([7]; pH 8 medium) was 7.91 and the “Visual Solubility (observation in words)” value ([7]; pH 8 medium) was “Turbid +”.

`CC[C@H](C)[C@H](NC(=O)OC)C(=O)N1CCC[C@H]1c1nc2ccc(-c3ccc4cc(-c5cnc([C@@H]6CCCN6C(=O)[C@@H](NC(=O)OC)[C@@H](C)OC)[nH]5)ccc4c3)cc2[nH]1` [Compound II] gave an EC50 [1] of 0.04 nM, an EC50 [2] of 0.4 nM and an EC50 [3] of 0.04 nM. It also gave an EC50 [4] of 0.11 nM, an EC50 [5] of 0.07 nM and an EC50 [6] of 0.01 nM.

With `CC[C@H](C)[C@H](NC(=O)OC)C(=O)N1CCC[C@H]1c1nc2ccc(-c3ccc4cc(-c5cnc([C@@H]6CCCN6C(=O)[C@@H](NC(=O)OC)[C@@H](C)OC)[nH]5)ccc4c3)cc2[nH]1` [amorphous Compound II] the “weight percentage change (water uptake) from 0-75% RH” value [8] was 13.57%.

From US20150203474A1, “SOLID FORMS COMPRISING INHIBITORS OF HCV NS5A, COMPOSITIONS THEREOF, AND USES THEREWITH” (PRESIDIO PHARMACEUTICALS ,INC., priority 2012, published 2015)
